Reference: patent publication US20100137344A1, “INDUCTION OF ANALGESIA IN NEUROPATHIC PAIN” (University Court of the University of Edinburgh, priority 2006, published 2010)

Experiments:
[1] = tested on: naïve rats; assay: Topical application to paws of naïve rats, behavioural reflex testing (PWL, PWT); format: in vivo, rat; settings: Naïve
Method: Thermal sensitivity was assessed by measuring paw withdrawal latency (PWL, s) in response to a noxious thermal stimulus (Hargreaves' thermal stimulator, Linton Instrumentation, Diss, UK) directed to the hindpaw mid-plantar glabrous surface. Mechanical sensitivity was recorded as the paw withdrawal threshold (PWT, mN/mm^2) to calibrated von Frey filaments (Stoelting, Ill., US), as previously described^[39]. Sensitivity to noxious cold was assessed by placing animals in a waterbath with an aluminium floor containing 1 cm deep 4° C. water and counting the time the paw was held suspended over a 20 s period.
Icilin was applied at concentrations of 2.5-500 μM (in water with 0.2% DMF), by placing CCI or naïve rats unrestrained for 5 min in a 1 cm deep waterbath (sufficient to cover paws), which was thermostatically controlled to a temperature of 30° C., or by very lightly anaesthetising rats and immersing hindpaws in small tubes containing 5 ml icilin (500 μM-5 mM, with a vehicle of 45% dimethylformamide in 0.2% aqueous Tween 80) for 5 min, followed by sensory testing for 60-80 mins. The effects of (−)-menthol and its stereoisomers isomenthol (1S,2R,5R-menthol,) and (+)-menthol (1S,2R,5S(+)-menthol) (4-16 mM in 80% ethanol) were also assessed. Relevant vehicles were always assessed in similar experiments. As a contrast, the effect of cinnamaldehyde (1.5 mM in water) and the effect of cinnamaldehyde with additional icilin (80 μM in water with 0.2% DMF) were assessed in naïve animals. The effects of icilin (80 μM) were further assessed in CCI animals that had undergone antisense and mis-sense treatment for knockdown of TRPM8 or immediately following intrathecal injection of either LY 341495 or UBP 1112. […] The effects of brief paw immersion at different temperatures (10-22° C. for 5 min) on CCI rats were assessed by mechanical testing. The effects of intrathecal LY 341495 or UBP 1112 on the reversal of ipsilateral sensitisation in CCI following a 16° C. cool challenge for 5 min were measured. Reflex testing commenced 5 minutes following challenge, unless animals had been anaesthetised, in which case 15 minutes was allowed for recovery. Six replicate animals were tested in all pharmacological experiments.

[2] = tested on: dorsal horn neurons; assay: Extracellular recordings of single spinal dorsal horn neurons in CCI animals (brush-evoked firing); format: in vivo, rat; settings: icilin 200 μM topical
Method: Peripheral: Recordings of saphenous (sensory) nerve were made in naïve animals (n=7) to assess the effects of topical icilin on primary afferents. In addition, recordings were carried out on animals which had undergone TRPM8 antisense or mis-sense treatment beginning 4-5 days previously. Rats were anaesthetised (with 0.6 ml 25% urethane/100 g, i.p.) and the saphenous nerve was exposed and dissected from its associated vein and artery. Further dissection under liquid paraffin enabled identification of afferent preparations comprising a small number of fibres. The conduction velocity of single identified afferent fibres was determined using bipolar electrodes and the peripheral stimulus technique^[43]. Following isolation of preparations, icilin (200 μM in water with 0.2% DMF), (−)-menthol (4 mM in 25% ethanol) resiniferatoxin (1 mM in ethanol) or vehicle alone were applied to the hindlimb receptive fields and neuronal responses recorded using the Chart programme (version 3.6). Central: Recordings of spinal dorsal horn neurons were made in CCI animals, as described previously^[39]. Following halothane induction, the jugular vein and trachea were canulated and intravenous anaesthetic delivered: α-chloralose ([…], Fisher) and urethane ([…], Sigma), with small supplementary doses of α-chloralose as required throughout the experiment. Core body temperature was maintained at 37-38° C. by means of a thermostatically controlled heated blanket. The animal was placed in a stereotaxic frame, and the thoracolumbar spinal column was supported using three pairs of swan-necked clamps. A laminectomy was performed at L2-L5, and agar (2% in saline at 37° C.) was delivered over exposed cord to increase mechanical stability. Above the recording region the agar and spinal cord dura were removed and liquid paraffin poured into the pool. Extracellular recordings were made from single multireceptive neurons in laminae I-IV through the centre barrel of a seven-barrelled glass microelectrode filled with 4M NaCl (tip-diameter […], DC resistance 5-8 MΩ). The receptive fields of hair-follicle innervated neurons on the distal hindlimb were identified by an innocuous brush stimulus^[39]. Icilin (200 μM in water with 0.2% DMF) was applied peripherally to the receptive field of individual recorded neurons, and the effect on neuronal response to a rotating brush was recorded and analysed using Spike2 programme (Version 3.2, CED). The Group III mGluR antagonist UBP 1112 (20 mM in water), pH 8.5, and control 1M NaCl, pH 8.5 were ionophoresed from the side barrels of the electrode using currents of between 20 nA and 80 nA (Neurophore BH2 ionophoresis system, Medical Systems, Great Neck, N.Y.) to measure effects on neuronal response to icilin.

[3] = icilin 1000 μM applied to paw, 15 mins
[4] = icilin 1000 μM applied to paw, 50 mins
[5] = icilin 2500 μM applied to paw, 15 mins
[6] = icilin 2500 μM applied to paw, 50 mins
[7] = icilin 5000 μM applied to paw, 15 mins
[8] = icilin 5000 μM applied to paw, 50 mins

O=C1NC(c2cccc([N+](=O)[O-])c2)=CCN1c1ccccc1O [icilin, 1-(2′-hydroxyphenyl)-4-(3″-nitrophenyl)-1,2,3,6-tetrahydropyrimidin-2-one]
Mechanical PWT [1, 3]: 4830.6 ± 0.0 mN/mm^2 | Thermal PWL [1, 3]: 15.1 ± 1.2 s | Mechanical PWT [1, 4]: 4830.6 ± 0.0 mN/mm^2 | Thermal PWL [1, 4]: 14.8 ± 0.9 s | Mechanical PWT [1, 5]: 4830.6 ± 0.0 mN/mm^2 | Thermal PWL [1, 5]: 14.9 ± 0.3 s | Mechanical PWT [1, 6]: 4830.6 ± 0.0 mN/mm^2 | Thermal PWL [1, 6]: 13.2 ± 0.8 s | Mechanical PWT [1, 7]: 3828.6 ± 316.8 mN/mm^2 | Thermal PWL [1, 7]: 15.3 ± 0.5 s | Mechanical PWT [1, 8]: 4830.6 ± 0.0 mN/mm^2 | Thermal PWL [1, 8]: 13.1 ± 0.7 s | brush-induced responses of contralateral neurons ([2]; contralateral, n=6): 111.9±8.9 % of control | brush-induced responses ([2]; ipsilateral to CCI, 8 neurons out of 12 affected): 37.4±5.5%
